Assay results: the NIST ThermoML archive (doi:10.1016/j.jct.2007.09.007)
± gives the expanded uncertainty stated by the source.

Assay: xn = mol fraction of the nth substance listed
Settings: 100 kPa, Liquid

C1COCCO1 [1,4-dioxane] + CC#N
mass density [kg/m3]
Settings	288.15 K	293.15 K	298.15 K	303.15 K
x1 = 0.0046	789.4 ± 0.35	784.08 ± 0.36	778.69 ± 0.36	773.26 ± 0.37
x1 = 0.0101	791.73 ± 0.35	786.38 ± 0.36	780.98 ± 0.36	775.56 ± 0.37
x1 = 0.0249	797.92 ± 0.34	792.61 ± 0.35	787.21 ± 0.35	781.78 ± 0.36
x1 = 0.0336	801.42 ± 0.34	796.07 ± 0.34	790.67 ± 0.35	785.24 ± 0.36
x1 = 0.0497	808.04 ± 0.33	802.72 ± 0.34	797.32 ± 0.34	791.89 ± 0.35
x1 = 0.0627	813.27 ± 0.32	807.95 ± 0.33	802.55 ± 0.34	797.13 ± 0.34
x1 = 0.1106	831.43 ± 0.3	826.1 ± 0.31	820.71 ± 0.32	815.28 ± 0.32
x1 = 0.1643	850.48 ± 0.28	845.16 ± 0.29	839.75 ± 0.29	834.33 ± 0.3
x1 = 0.2127	866.78 ± 0.26	861.44 ± 0.27	856.05 ± 0.28	850.62 ± 0.28
x1 = 0.2853	889.43 ± 0.24	884.08 ± 0.24	878.67 ± 0.25	873.24 ± 0.26
x1 = 0.3355	904 ± 0.22	898.64 ± 0.23	893.23 ± 0.23	887.8 ± 0.24
x1 = 0.4341	930.27 ± 0.2	924.89 ± 0.2	919.46 ± 0.21	914.02 ± 0.21
x1 = 0.4807	941.65 ± 0.18	936.29 ± 0.19	930.86 ± 0.2	925.4 ± 0.2
x1 = 0.5277	952.67 ± 0.17	947.29 ± 0.18	941.85 ± 0.18	936.38 ± 0.19
x1 = 0.5828	964.93 ± 0.16	959.51 ± 0.17	954.06 ± 0.17	948.58 ± 0.18
x1 = 0.6385	976.54 ± 0.15	971.14 ± 0.16	965.66 ± 0.16	960.16 ± 0.17
x1 = 0.6845	985.67 ± 0.14	980.25 ± 0.15	974.76 ± 0.16	969.25 ± 0.16
x1 = 0.7278	993.97 ± 0.14	988.54 ± 0.14	983.03 ± 0.15	977.5 ± 0.15
x1 = 0.777	1002.84 ± 0.14	997.35 ± 0.14	991.82 ± 0.14	986.28 ± 0.15
x1 = 0.8181	1010.08 ± 0.15	1004.61 ± 0.14	999.06 ± 0.14	993.5 ± 0.14
x1 = 0.8703	1018.77 ± 0.16	1013.28 ± 0.15	1007.7 ± 0.15	1002.12 ± 0.14
x1 = 0.9145	1025.86 ± 0.17	1020.33 ± 0.17	1014.73 ± 0.16	1009.11 ± 0.15
x1 = 0.9604	1032.84 ± 0.18	1027.29 ± 0.18	1021.66 ± 0.17	1016.03 ± 0.16
x1 = 0.9652	1033.57 ± 0.19	1027.98 ± 0.18	1022.35 ± 0.17	1016.71 ± 0.16
x1 = 0.9757	1035.18 ± 0.19	1029.58 ± 0.18	1023.93 ± 0.17	1018.3 ± 0.17
x1 = 0.9817	1036.07 ± 0.19	1030.46 ± 0.18	1024.82 ± 0.18	1019.17 ± 0.17
x1 = 0.99	1037.29 ± 0.19	1031.66 ± 0.19	1025.99 ± 0.18	1020.36 ± 0.17
x1 = 0.9954	1038.08 ± 0.19	1032.48 ± 0.19	1026.83 ± 0.18	1021.18 ± 0.17

CC(C)OC(C)C [diisopropyl ether] + CC#N
mass density [kg/m3]
Settings	288.15 K	293.15 K	298.15 K	303.15 K
x1 = 0.0072	786.61 ± 0.46	781.29 ± 0.47	775.9 ± 0.48	770.47 ± 0.49
x1 = 0.015	785.8 ± 0.46	780.49 ± 0.47	775.1 ± 0.48	769.68 ± 0.49
x1 = 0.0247	784.84 ± 0.46	779.54 ± 0.47	774.15 ± 0.48	768.74 ± 0.49
x1 = 0.0308	784.29 ± 0.46	778.97 ± 0.47	773.59 ± 0.48	768.17 ± 0.49
x1 = 0.0381	783.55 ± 0.47	778.25 ± 0.47	772.87 ± 0.48	767.46 ± 0.49
x1 = 0.0482	782.56 ± 0.47	777.27 ± 0.48	771.89 ± 0.48	766.48 ± 0.49
x1 = 0.0991	777.78 ± 0.48	772.47 ± 0.48	767.11 ± 0.49	761.72 ± 0.5
x1 = 0.1496	773.32 ± 0.49	768.06 ± 0.49	762.72 ± 0.5	757.34 ± 0.51
x1 = 0.2511	765.5 ± 0.5	760.24 ± 0.51	754.91 ± 0.52	749.55 ± 0.53
x1 = 0.3069	761.73 ± 0.51	756.5 ± 0.52	751.18 ± 0.53	745.83 ± 0.54
x1 = 0.3507	758.83 ± 0.52	753.58 ± 0.53	748.27 ± 0.54	742.93 ± 0.55
x1 = 0.4104	755.28 ± 0.53	750.02 ± 0.54	744.74 ± 0.55	739.4 ± 0.56
x1 = 0.4513	752.87 ± 0.54	747.67 ± 0.55	742.35 ± 0.56	737.04 ± 0.56
x1 = 0.5132	749.57 ± 0.55	744.35 ± 0.56	739.06 ± 0.57	733.73 ± 0.57
x1 = 0.56	747.13 ± 0.56	741.91 ± 0.57	736.63 ± 0.58	731.3 ± 0.58
x1 = 0.6429	743.32 ± 0.58	738.15 ± 0.58	732.87 ± 0.59	727.55 ± 0.6
x1 = 0.6938	741.1 ± 0.59	735.9 ± 0.59	730.64 ± 0.6	725.33 ± 0.61
x1 = 0.76	738.32 ± 0.6	733.12 ± 0.61	727.83 ± 0.61	722.53 ± 0.62
x1 = 0.8129	736.2 ± 0.61	731.02 ± 0.62	725.76 ± 0.63	720.46 ± 0.63
x1 = 0.8449	735 ± 0.62	729.8 ± 0.62	724.53 ± 0.63	719.26 ± 0.64
x1 = 0.904	732.62 ± 0.63	727.46 ± 0.64	722.22 ± 0.64	716.94 ± 0.65
x1 = 0.9509	730.9 ± 0.64	725.75 ± 0.65	720.52 ± 0.66	715.25 ± 0.66
x1 = 0.963	730.42 ± 0.64	725.28 ± 0.65	720.05 ± 0.66	714.78 ± 0.66
x1 = 0.9685	730.2 ± 0.65	725.06 ± 0.65	719.83 ± 0.66	714.56 ± 0.67
x1 = 0.9815	729.68 ± 0.65	724.52 ± 0.66	719.32 ± 0.66	714.06 ± 0.67
x1 = 0.9887	729.4 ± 0.65	724.27 ± 0.66	719.05 ± 0.66	713.79 ± 0.67
x1 = 0.9945	729.15 ± 0.65	724.02 ± 0.66	718.81 ± 0.67	713.55 ± 0.67

C1CCOC1 [tetrahydrofuran] + CC#N
mass density [kg/m3]
Settings	288.15 K	293.15 K	298.15 K	303.15 K
x1 = 0.0053	788.34 ± 0.34	783 ± 0.35	777.57 ± 0.36	772.17 ± 0.36
x1 = 0.0104	789.18 ± 0.34	783.84 ± 0.35	778.44 ± 0.36	773.01 ± 0.36
x1 = 0.0197	790.72 ± 0.34	785.35 ± 0.35	779.94 ± 0.35	774.52 ± 0.36
x1 = 0.0294	792.28 ± 0.34	786.96 ± 0.35	781.56 ± 0.35	776.11 ± 0.36
x1 = 0.0389	793.83 ± 0.34	788.5 ± 0.34	783.1 ± 0.35	777.67 ± 0.36
x1 = 0.0993	803.2 ± 0.33	797.8 ± 0.33	792.41 ± 0.34	786.97 ± 0.35
x1 = 0.1598	812.11 ± 0.32	806.78 ± 0.33	801.3 ± 0.33	795.84 ± 0.34
x1 = 0.1978	817.43 ± 0.31	812.02 ± 0.32	806.63 ± 0.33	801.18 ± 0.33
x1 = 0.2441	823.65 ± 0.31	818.27 ± 0.31	812.84 ± 0.32	807.39 ± 0.33
x1 = 0.2845	828.9 ± 0.3	823.5 ± 0.31	818.1 ± 0.31	812.64 ± 0.32
x1 = 0.3445	836.2 ± 0.29	830.81 ± 0.3	825.36 ± 0.31	819.91 ± 0.31
x1 = 0.4022	842.91 ± 0.29	837.51 ± 0.29	832.02 ± 0.3	826.57 ± 0.31
x1 = 0.4545	848.62 ± 0.28	843.24 ± 0.29	837.79 ± 0.3	832.34 ± 0.3
x1 = 0.4995	853.35 ± 0.28	847.94 ± 0.29	842.49 ± 0.29	837.08 ± 0.3
x1 = 0.5298	856.4 ± 0.28	851.03 ± 0.28	845.55 ± 0.29	840.1 ± 0.3
x1 = 0.5552	858.94 ± 0.27	853.51 ± 0.28	848.07 ± 0.29	842.6 ± 0.29
x1 = 0.6054	863.65 ± 0.27	858.25 ± 0.28	852.78 ± 0.28	847.29 ± 0.29
x1 = 0.6405	866.78 ± 0.27	861.42 ± 0.28	855.96 ± 0.28	850.47 ± 0.29
x1 = 0.6603	868.52 ± 0.27	863.15 ± 0.27	857.69 ± 0.28	852.2 ± 0.29
x1 = 0.6976	871.74 ± 0.27	866.29 ± 0.27	860.83 ± 0.28	855.34 ± 0.28
x1 = 0.747	875.76 ± 0.26	870.32 ± 0.27	864.86 ± 0.28	859.36 ± 0.28
x1 = 0.8003	879.84 ± 0.26	874.36 ± 0.27	868.9 ± 0.27	863.41 ± 0.28
x1 = 0.8179	881.06 ± 0.26	875.68 ± 0.27	870.22 ± 0.27	864.73 ± 0.28
x1 = 0.8537	883.67 ± 0.26	878.23 ± 0.27	872.77 ± 0.27	867.28 ± 0.28
x1 = 0.8975	886.63 ± 0.26	881.19 ± 0.27	875.76 ± 0.27	870.25 ± 0.28
x1 = 0.9502	890 ± 0.26	884.59 ± 0.26	879.13 ± 0.27	873.61 ± 0.28
x1 = 0.9671	890.93 ± 0.26	885.55 ± 0.26	880.09 ± 0.27	874.59 ± 0.28
x1 = 0.9745	891.4 ± 0.26	886.03 ± 0.26	880.56 ± 0.27	875.07 ± 0.28
x1 = 0.9854	892.01 ± 0.26	886.65 ± 0.26	881.17 ± 0.27	875.7 ± 0.28
x1 = 0.9877	892.14 ± 0.26	886.76 ± 0.26	881.29 ± 0.27	875.8 ± 0.28
x1 = 0.994	892.51 ± 0.26	887.12 ± 0.26	881.66 ± 0.27	876.13 ± 0.28
